System: patients with head and neck cancer
Method: A phase II, multicentre, randomised, double-blind, placebo-controlled study was performed to compare the efficacy of the mucoadhesive buccal tablets of Example 1D, comprising 50 μg of clonidine hydrochloride, applied once daily to that of placebo in the prevention and treatment of […] following radiotherapy in patients with head and neck cancer (suffering from a newly diagnosed squamous cell carcinoma of the oral cavity, oropharynx, hypopharynx or larynx). These patients received, within 15 weeks after curative surgery, a cumulative radiation dose of radiation ranging from 50 to 70 Gray in oral cavity, based on a daily dosing between 1.8 and 2.2 Gy, combined with platinum-based chemotherapy, based on a weekly or tri-weekly cycle. Clonidine was administered in the form of a mucoadhesive tablet that was applied into the mouth, on the upper gum, for about 30 seconds, after which it remained in place for several hours. The treatment with clonidine hydrochloride started from 1 to 3 days before radiotherapy until the end of radiotherapy, for up to 8 weeks. Patients were evaluated twice a week during the radiotherapy period, then one month after stop of radiotherapy.

[1] = mucoadhesive buccal tablet of Example 1D, 50 μg clonidine hydrochloride once daily, up to 8 weeks, radiotherapy plus platinum-based chemotherapy, placebo 12.9%

## Cl.Clc1cccc(Cl)c1NC1=NCCN1 [Clonidine]
Additional identical experiment using 100 μg of clonidine hydrochloride
  occurrence of nausea: 46.9%
[1]
  Cough (reported adverse side effect, occurrence): 5.5%
  Fatigue (reported adverse side effect, occurrence): 9.1%
Mucoadhesive buccal tablet of Example 1D, 50 μg clonidine hydrochloride once daily, up to 8 weeks, radiotherapy plus platinum-based chemotherapy, placebo 14.5%
  Headache (reported adverse side effect, occurrence): 9.1%
Mucoadhesive buccal tablet of Example 1D, 50 μg clonidine hydrochloride once daily, up to 8 weeks, radiotherapy plus platinum-based chemotherapy, placebo 21.0%
  Diarrhoea (reported adverse side effect, occurrence): 12.7%
Mucoadhesive buccal tablet of Example 1D, 50 μg clonidine hydrochloride once daily, up to 8 weeks, radiotherapy plus platinum-based chemotherapy, placebo 24.2%
  Asthenia (reported adverse side effect, occurrence): 16.4%
Mucoadhesive buccal tablet of Example 1D, 50 μg clonidine hydrochloride once daily, up to 8 weeks, radiotherapy plus platinum-based chemotherapy, placebo 38.7%
  Vomiting (reported adverse side effect, occurrence): 25.5%
Mucoadhesive buccal tablet of Example 1D, 50 μg clonidine hydrochloride once daily, up to 8 weeks, radiotherapy plus platinum-based chemotherapy, placebo 71.0%
  Nausea (reported adverse side effect, occurrence): 52.7%
